In patent US20110236886A1, “PATHOGENICITY DETERMINANTS WHICH CAN BE USED AS TARGETS FOR DEVELOPING MEANS FOR PREVENTING AND CONTROLLING BACTERIAL INFECTIONS AND/OR SYSTEMIC DISSEMINATION” (priority 2002, published 2011):

Tests used:
[1] = test system: S. agalactiae NEM316; test: Disk diffusion sensitivity to cationic antimicrobial peptides, wild type strain; format: cell-based, Streptococcus agalactiae; conditions: blood agar plates, 18 hours at 37° C., disc content colistin 50 μg, polymixin B 10 μg
Procedure: (§1) The sensitivity of wild type S. agalactiae NEM316 and DltD mutant to cationic antimicrobial peptides was measured by using a disk diffusion methods. The 2 strains were grown on blood agar plates and incubated for 18 hours at 37° C. Each strain was tested using colistin (50 μg) and polymixin (10 μg) disks. Sensitivity or resistance of NEM316 strain and the DltD mutant to each compound was determined by the size of the growth inhibition area around disk.

[2] = test system: DltD mutant of S. agalactiae NEM316; test: Disk diffusion sensitivity to cationic antimicrobial peptides, DltD mutant; format: cell-based, Streptococcus agalactiae; conditions: for Inhibition area (mm) Mutant DltD: blood agar plates, 18 hours at 37° C., disc content colistin 50 μg, polymixin B 10 μg; for Sensitivity of the DltD mutant to the peptide compared with wild type: result in words
Procedure: as §1

Row | Substance | Inhibition area (mm) NEM316 [1] [mm] | Inhibition area (mm) Mutant DltD [2] [mm] | Sensitivity of the DltD mutant to the peptide compared with wild type [2]
1 | colistin | 0 | 14 | increased sensitivity
2 | polymyxin B [Polymixin B] | 0 | 14 | increased sensitivity
